Experimental data from ChEMBL document CHEMBL5338746, “New Generation of sGC Stimulators: Discovery of Imidazo[1,2-a]pyridine Carboxamide BAY 1165747 (BAY-747), a Long-Acting Soluble Guanylate Cyclase Stimulator for the Treatment of Resistant Hypertension” (J Med Chem, 2023).
Active and inactive are the calls of the source. The calls are words filed in the database; no cut-off is given here.

Columns and labels:
[1] = system: Rattus norvegicus; assay: Antihypertensive activity against L-NAME treated renin transgenic Wistar rat cardiovascular disease model assessed as body weight gain at 0.3 mg/kg administered via oral gavage once daily for 21 days; type: functional, organism-based; conditions: time 21.0 day
[2] = system: Rattus norvegicus; assay: Antihypertensive activity against L-NAME treated renin transgenic Wistar rat cardiovascular disease model assessed as reduction in mortality rate at 0.3 mg/kg administered via oral gavage once daily for 21 days; type: functional, organism-based; conditions: time 21.0 day
[3] = system: Rattus norvegicus; assay: Antihypertensive activity against L-NAME treated renin transgenic Wistar rat cardiovascular disease model assessed as reduction in mortality rate at 3 mg/kg administered via oral gavage once daily for 21 days; type: functional, organism-based; conditions: time 21.0 day
[4] = system: Rattus norvegicus; assay: Anti-hypertensive activity against L-NAME treated renin transgenic Wistar rat cardiovascular disease model assessed as increase in plasma cGMP level at 0.3 mg/kg administered once daily via oral gavage upto 21 days (reference value: 572+/-350 pmol/mL); type: functional; conditions: time <= 21 day
[5] = system: Rattus norvegicus; assay: Anti-hypertensive activity against L-NAME treated renin transgenic Wistar rat cardiovascular disease model assessed as increase in plasma cGMP level at 3 mg/kg administered once daily via oral gavage upto 21 days (reference value: 572+/-350 pmol/mL); type: functional; conditions: time <= 21 day
[6] = system: Rattus norvegicus; assay: Anti-hypertensive activity against L-NAME treated renin transgenic Wistar rat cardiovascular disease model assessed as change in heart to body weight at 0.3 mg/kg administered once daily via oral gavage upto 21 days (reference value: 4.64+/-0.3 g/Kg); type: functional; conditions: time <= 21 day
[7] = system: Rattus norvegicus; assay: Anti-hypertensive activity against L-NAME treated renin transgenic Wistar rat cardiovascular disease model assessed as change in heart to body weight at 3 mg/kg administered once daily via oral gavage upto 21 days (reference value: 4.64+/-0.3 g/Kg); type: functional; conditions: time <= 21 day
[8] = system: Rattus norvegicus; assay: Anti-hypertensive activity against L-NAME treated renin transgenic Wistar rat cardiovascular disease model assessed as reduction in plasma BNP level at 0.3 mg/kg administered once daily via oral gavage upto 21 days (reference value: 403+/-325 pg/ml); type: functional; conditions: time <= 21 day
[9] = system: Rattus norvegicus; assay: Anti-hypertensive activity against L-NAME treated renin transgenic Wistar rat cardiovascular disease model assessed as reduction in plasma BNP level at 3 mg/kg administered once daily via oral gavage upto 21 days (reference value: 403+/-325 pg/ml); type: functional; conditions: time <= 21 day
[10] = system: Rattus norvegicus; assay: Anti-hypertensive activity against L-NAME treated renin transgenic Wistar rat cardiovascular disease model assessed as change in kidney to body weight at 0.3 mg/kg administered once daily via oral gavage upto 21 days (reference value: 3.79 +/- 0.1 g/kg); type: functional; conditions: time <= 21 day
[11] = system: Rattus norvegicus; assay: Anti-hypertensive activity against L-NAME treated renin transgenic Wistar rat cardiovascular disease model assessed as change in kidney to body weight at 3 mg/kg administered once daily via oral gavage upto 21 days (reference value: 3.79 +/- 0.1 g/kg); type: functional; conditions: time <= 21 day
[12] = system: Rattus norvegicus; assay: Anti-hypertensive activity against L-NAME treated renin transgenic Wistar rat cardiovascular disease model assessed as increase in survival at 0.3 mg/kg administered once daily via oral gavage upto 21 days (reference value: 21%); type: functional; conditions: time <= 21 day
[13] = system: Rattus norvegicus; assay: Anti-hypertensive activity against L-NAME treated renin transgenic Wistar rat cardiovascular disease model assessed as increase in survival at 3 mg/kg administered once daily via oral gavage upto 21 days (reference value: 21%); type: functional; conditions: time <= 21 day
[14] = system: Rattus norvegicus; assay: Antihypertensive activity against L-NAME treated renin transgenic Wistar rat cardiovascular disease model assessed as reduction in blood pressure at 3 mg/kg administered via oral gavage once daily for 28 days; type: functional, organism-based; conditions: time 28.0 day
[15] = system: Rattus norvegicus; assay: Antihypertensive activity against L-NAME treated renin transgenic Wistar rat cardiovascular disease model assessed as reduction in blood pressure at 0.3 mg/kg administered via oral gavage once daily for 28 days; type: functional, organism-based; conditions: time 28.0 day
[16] = system: Rattus norvegicus; assay: Antihypertensive activity against L-NAME treated renin transgenic Wistar rat cardiovascular disease model assessed as body weight gain at 3 mg/kg administered via oral gavage once daily for 21 days; type: functional, organism-based; conditions: time 21.0 day
[17] = system: Aorta; assay: Vasorelaxant activity in New Zealand White rabbits aortic rings assessed as reduction in phenylephrine-induced contraction measured after 30 mins; type: functional, tissue-based; conditions: Oryctolagus cuniculus, 0.5 h
[18] = system: Rattus norvegicus; assay: Antihypertensive activity in spontaneous hypertensive Wistar rat assessed as decrease in systolic blood pressure iv administered as bolus injection measured for 21 days by tail-cuff method; type: functional, organism-based; conditions: dose 0.3-3 mg/kg, time 21.0 day
[19] = system: Rattus norvegicus; assay: Antihypertensive activity in spontaneous hypertensive Wistar rat assessed as decrease in systolic blood pressure at 0.3 mg/kg, iv administered as bolus injection measured for 21 days by tail-cuff method; type: functional; conditions: time 21 day
[20] = system: Rattus norvegicus; assay: Antihypertensive activity in spontaneous hypertensive Wistar rat assessed as decrease in systolic blood pressure at 0.003 mg/kg, iv administered as bolus injection measured for 21 days by tail-cuff method (reference value: -12 mmHg); type: functional; conditions: time 21 day
[21] = system: Rattus norvegicus; assay: Antihypertensive activity in spontaneous hypertensive Wistar rat assessed as decrease in systolic blood pressure at 0.01 mg/kg, iv administered as bolus injection measured for 21 days by tail-cuff method (reference value: -12 mmHg); type: functional; conditions: time 21 day
[22] = system: Rattus norvegicus; assay: Antihypertensive activity in spontaneous hypertensive Wistar rat assessed as decrease in systolic blood pressure at 0.03 mg/kg, iv administered as bolus injection measured for 21 days by tail-cuff method (reference value: -12 mmHg); type: functional; conditions: time 21 day
[23] = system: Rattus norvegicus; assay: Antihypertensive activity in spontaneous hypertensive Wistar rat assessed as decrease in systolic blood pressure at 0.1 mg/kg, iv administered as bolus injection measured for 21 days by tail-cuff method (reference value: -12 mmHg); type: functional; conditions: time 21 day
[24] = system: Rattus norvegicus; assay: Antihypertensive activity in spontaneous hypertensive Wistar rat assessed as decrease in systolic blood pressure at 0.3 mg/kg, iv administered as bolus injection measured for 21 days by tail-cuff method (reference value: -12 mmHg); type: functional; conditions: time 21 day
[25] = system: Rattus norvegicus; assay: Antihypertensive activity in spontaneous hypertensive Wistar rat model assessed as reduction in blood pressure po administered bolus injection by radiotelemetry analysis; type: functional, organism-based; conditions: dose 0.3 mg/kg
[26] = system: Rattus norvegicus; assay: Antihypertensive activity in spontaneous hypertensive Wistar rat model assessed as reduction in blood pressure at 0.3 to 3.0 mg/kg, po measured after 2 hrs by radiotelemetry analysis; type: functional; design: scale not given: the % may be the effect or the level left; conditions: dose 0.3-3 mg/kg
[27] = system: Rattus norvegicus; assay: Antihypertensive activity in spontaneous hypertensive Wistar rat model assessed as reduction in blood pressure at 0.3 mg/kg, po measured after 24 hrs by radiotelemetry analysis; type: functional, organism-based
[28] = system: Rattus norvegicus; assay: Antihypertensive activity in spontaneous hypertensive Wistar rat model assessed as reduction in blood pressure at 1 mg/kg, po measured after 24 hrs by radiotelemetry analysis; type: functional, organism-based

## CC[C@](C)(N)CNC(=O)c1c(C)nc2c(OCc3c(F)cccc3F)cc(C)cn12
[1]
  Activity: Active
[2]
  Activity: Active
[3]
  Activity: Active
[4]
  Activity: 1018 pmol/mL
[5]
  Activity: 2798 pmol/mL
[6]
  Activity: 4.03 g/kg
[7]
  Activity: 3.64 g/kg
[8]
  Activity: 284 pg/mL
[9]
  Activity: 97 pg/mL
[10]
  Activity: 3.72 g/kg
[11]
  Activity: 3.72 g/kg
[12]
  Activity: 44%
[13]
  Activity: 78%
[14]
  Activity: Active
[15]
  Activity: inactive
[16]
  Activity: Active
[17]
  IC50: 27 nM
[18]
  Activity: Dose-Dependent Effect
[19]
  Activity: -86 mmHg
[20]
  Activity: -19 mmHg
[21]
  Activity: -22 mmHg
[22]
  Activity: -49 mmHg
[23]
  Activity: -70 mmHg
[24]
  Activity: -86 mmHg
[25]
  Activity: Dose-Dependent Effect
[26]
  Activity: 10%
[27]
  Activity: Active
[28]
  Activity: Active
